These results are taken from US11667606B2, “Thyromimetics” (Autobahn Therapeutics, Inc., priority 2019, dated 2023).

Where only a bound is given, the exact number is not on record here.

The target in one assay is T1, TRα (Homo sapiens, UniProt P10827).
T1 construct: expressed in transfected cells; host or cells: HEK293
T1 sequence (P10827 128-410 isoform P10827-2 limits assumed): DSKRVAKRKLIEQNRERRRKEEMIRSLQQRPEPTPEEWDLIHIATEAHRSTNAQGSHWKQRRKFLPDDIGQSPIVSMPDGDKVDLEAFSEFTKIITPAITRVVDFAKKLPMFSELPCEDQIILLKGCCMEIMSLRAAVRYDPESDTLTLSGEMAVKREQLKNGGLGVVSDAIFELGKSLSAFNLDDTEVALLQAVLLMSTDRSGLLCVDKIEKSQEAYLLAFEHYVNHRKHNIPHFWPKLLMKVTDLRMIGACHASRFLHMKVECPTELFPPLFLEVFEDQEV
Description: Thyroid-hormone reporter-gene assay, TRα (Gal4 DBD hybrid, luciferase, HEK293). Format: cell-based. Particulars: reporter cells derived from HEK293, 24 hr incubation, luciferase readout.

A further assay deals with T2, TRβ (Homo sapiens, UniProt P10828).
T2 construct: expressed in transfected cells; host or cells: HEK293
T2 sequence (P10828 217-461 limits assumed): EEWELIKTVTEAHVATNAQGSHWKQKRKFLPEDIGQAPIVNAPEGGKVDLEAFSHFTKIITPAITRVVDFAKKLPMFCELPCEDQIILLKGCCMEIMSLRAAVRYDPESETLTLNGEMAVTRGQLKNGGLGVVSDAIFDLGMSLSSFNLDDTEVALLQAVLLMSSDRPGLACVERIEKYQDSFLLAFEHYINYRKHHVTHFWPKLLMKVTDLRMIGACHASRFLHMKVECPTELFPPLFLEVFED
Description: Thyroid-hormone reporter-gene assay, TRβ (Gal4 DBD hybrid, luciferase, HEK293). The conditions noted are these: for T3-SI, selectivity index (SI) calculated as EC50 (TRα)/EC50 (TRβ): TRβ over TRα selectivity from reporter-gene EC50 values; for EC50: reporter cells derived from HEK293, 24 hr incubation, luciferase readout. Format: cell-based.

As a reminder, the EC50 is the concentration giving half of the maximal effect. A higher EC50 goes with lower potency in that assay. On to `O=C(O)COc1cc(Cl)c(Cc2ccc(O)c(-c3cccc(OC(F)F)c3)c2)c(Cl)c1` [Compound 5, 2-(3,5-dichloro-4-((3′-(difluoromethoxy)-6-hydroxy-[1,1′-biphenyl]-3-yl)methyl)phenoxy)acetic Acid], for which the EC50 on TRα is greater than 1 µM. Also, at TRβ, the “T3-SI, selectivity index (SI) calculated as EC50 (TRα)/EC50 (TRβ)” value was “+++ (T3-SI > 30X)” and the EC50 is 0.1 to 1 µM.
The corresponding values for `O=C(O)COc1cc(Cl)c(Cc2ccc(O)c(-c3cc(Cl)cs3)c2)c(Cl)c1` [Compound 36, 2-(3,5-dichloro-4-(3-(4-chlorothiophen-2-yl)-4-hydroxybenzyl)phenoxy) acetic Acid] are greater than 1 µM, “++ (3X < T3-SI ≤ 30X)” and greater than 1 µM.
The corresponding values for `O=C(O)COc1cc(Cl)c(Cc2ccc(O)c(-c3cc(OC(F)F)ccc3F)c2)c(Cl)c1` [Compound 52, 2-(3,5-dichloro-4-((5′-(difluoromethoxy)-2′-fluoro-6-hydroxy-[1,1′-biphenyl]-3-yl)methyl)phenoxy)acetic Acid] are 0.1 to 1 µM, “++ (3X < T3-SI ≤ 30X)” and 0.01 to 0.1 µM.
With `O=C(COc1cc(Cl)c(Cc2ccc(O)c(-c3cccc(OC(F)F)c3)c2)c(Cl)c1)N1CC1` [Compound 138, 1-(aziridin-1-yl)-2-(3,5-dichloro-4-((3′-(difluoromethoxy)-6-hydroxy-[1,1′-biphenyl]-3-yl)methyl)phenoxy)ethan-1-one], the EC50 on TRα was greater than 1 µM. For the same compound, on TRβ, the “T3-SI, selectivity index (SI) calculated as EC50 (TRα)/EC50 (TRβ)” value is reported as “++ (3X < T3-SI ≤ 30X)” and the half-maximal effective concentration (EC50) fell in the range of 0.1 to 1 µM.
